Assay results from ChEMBL document CHEMBL1201862, “PubChem BioAssay data set” (2004).
Each block holds one compound with its values, some of them ahead of it. Calls of active or inactive are those of the source.

Key:
[1] = biological target: SUMO-activating enzyme (Homo sapiens, UniProt Q9UBT2); test: SUMOylation inhibitor hit validation, confirmation, SUMOylation inhibitor project, biochemical, AlphaScreen (AID 2018); assay type: functional
[2] = biological target: Cytochrome P450 2D6 (Homo sapiens, UniProt P10635);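 also: CYP2D6 member of a cytochrome P450 panel assay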
[3] = biological target: T1, Nucleotide-binding oligomerization domain-containing protein 1 (Homo sapiens, UniProt Q9Y239); test: NOD1 signaling inhibitors, SAR follow-up, revised (AID 2333); assay type: functional
T1 sequence (Q9Y239 whole entry): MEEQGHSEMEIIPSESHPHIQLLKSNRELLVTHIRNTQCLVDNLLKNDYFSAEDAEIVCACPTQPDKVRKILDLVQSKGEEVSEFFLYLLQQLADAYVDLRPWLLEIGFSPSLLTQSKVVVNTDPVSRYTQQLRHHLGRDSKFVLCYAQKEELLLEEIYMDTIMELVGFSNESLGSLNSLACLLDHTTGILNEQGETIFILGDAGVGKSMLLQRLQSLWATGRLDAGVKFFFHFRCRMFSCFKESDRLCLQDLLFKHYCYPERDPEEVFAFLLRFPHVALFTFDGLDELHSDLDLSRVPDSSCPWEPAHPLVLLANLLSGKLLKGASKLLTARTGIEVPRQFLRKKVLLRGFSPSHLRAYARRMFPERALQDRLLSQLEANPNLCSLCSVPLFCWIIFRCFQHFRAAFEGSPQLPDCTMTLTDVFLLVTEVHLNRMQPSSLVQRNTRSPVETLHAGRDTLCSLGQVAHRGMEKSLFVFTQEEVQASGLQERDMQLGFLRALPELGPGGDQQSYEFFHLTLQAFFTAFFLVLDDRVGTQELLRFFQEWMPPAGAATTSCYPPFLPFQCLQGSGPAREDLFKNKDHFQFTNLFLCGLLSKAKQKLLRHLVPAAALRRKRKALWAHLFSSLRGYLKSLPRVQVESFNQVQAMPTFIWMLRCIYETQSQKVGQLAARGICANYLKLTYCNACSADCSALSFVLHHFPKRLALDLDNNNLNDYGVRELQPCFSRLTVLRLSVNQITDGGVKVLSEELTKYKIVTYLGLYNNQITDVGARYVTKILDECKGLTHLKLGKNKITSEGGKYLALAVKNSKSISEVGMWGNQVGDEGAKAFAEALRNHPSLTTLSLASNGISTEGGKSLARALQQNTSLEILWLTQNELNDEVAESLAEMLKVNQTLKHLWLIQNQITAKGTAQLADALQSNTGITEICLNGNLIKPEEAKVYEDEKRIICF

[4] = biological target: Tumor necrosis factor (Homo sapiens, UniProt P01375); test: TNFa-triggered NF-kB activation inhibitors, SAR follow-up, cell-based, revised (AID 2337); assay type: functional
[5] = biological target: Nucleotide-binding oligomerization domain-containing protein 2 (Homo sapiens, UniProt Q9HC29); test: NOD2 signaling inhibitors, cell-based, luminescence, uHTS, HEK293 (AID 1566); assay type: functional
[6] = tested on: HEK293; test: cells; details: Homo sapiens
[7] = tested on: HEK293; test: cells; assay type: functional, cell-based; details: Homo sapiens
[8] = tested on: HEK293; test: NOD2 signaling inhibitors in MDP-stimulated cells, cell-based, uHTS, luminescence (AID 2001); assay type: functional; details: Homo sapiens
[9] = tested on: HEK293; test: cells; assay type: functional, cell-based; details: Homo sapiens; remark: listed apart in the source
[10] = tested on: HEK293; test: NOD1 signaling inhibitors, primary screen, cell-based, luminescence, uHTS (AID 1578); assay type: functional; details: Homo sapiens
[11] = tested on: HEK293; test: cells; assay type: functional, cell-based; details: Homo sapiens; remark: listed apart in the source
[12] = biological target: Cytochrome P450 2C19 (Homo sapiens, UniProt P33261); test: Cytochrome panel assay with activity outcomes. Panel member name: p450-cyp2c19 Compounds with AC50 equal or less than 10 uM are considered active; assay type: functional; details: read-out: AC50
[13] = biological target: T2, COUP transcription factor 2 (Homo sapiens, UniProt P24468); test: Luminescence-based cell-based high throughput dose response assay to identify inhibitors of COUP-TFII (NR2F2).; assay type: functional;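 also: HEK293 cells transiently cotransfected with COUP-TFII expression vector and reporter; luciferase reporter luminescence driven by COUP-TFII from the pX2-168 reporter plasmid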
T2 sequence (P24468 whole entry): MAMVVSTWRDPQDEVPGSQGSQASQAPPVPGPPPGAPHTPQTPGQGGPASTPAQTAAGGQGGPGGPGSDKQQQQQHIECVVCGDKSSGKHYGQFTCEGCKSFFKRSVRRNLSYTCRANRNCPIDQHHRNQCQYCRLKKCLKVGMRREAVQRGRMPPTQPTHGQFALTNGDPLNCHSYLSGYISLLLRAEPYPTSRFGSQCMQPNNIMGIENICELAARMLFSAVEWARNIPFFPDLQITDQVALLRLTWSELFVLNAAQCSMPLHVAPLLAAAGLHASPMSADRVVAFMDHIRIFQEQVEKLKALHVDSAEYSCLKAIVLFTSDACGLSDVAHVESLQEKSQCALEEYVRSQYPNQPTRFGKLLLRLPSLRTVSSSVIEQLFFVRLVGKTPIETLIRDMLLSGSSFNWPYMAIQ

[14] = control 3'UTR Renilla luciferase suppression, dose response, counter-screen for Shn3 inhibitor project, cell-based, Clone20-Shn3RL, cherry-picked (AID 624133); assay type: functional
[15] = tested on: INS1; test: beta cell apoptosis inhibitors, cytokine rescue, dose response, luminescence, retest (AID 449756); assay type: functional, cell-based; details: Rattus norvegicus;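 also: cell death triggered by IL-1 beta plus TNF-alpha plus IFN-gamma mixture; protective hits raise ATP signal compared with cytokine alone wells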
[16] = Shn3 3'UTR reporter inhibitors, dose response, cell-based, Clone20 osteoblasts, firefly luciferase, cherry-picked (AID 624132); assay type: functional;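 also: firefly luciferase luminescence from reporter carrying the Shn3 3'UTR in osteoblasts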
[17] = biological target: T3, Hexokinase HKDC1 (Homo sapiens, UniProt Q2TB90); test: SAR analysis of small molecule inhibitors of hexokinase domain containing I (HKDC1). [Related pubchem assays (depositor defined):AID493160, AID493190]; assay type: functional
T3 sequence (Q2TB90 whole entry): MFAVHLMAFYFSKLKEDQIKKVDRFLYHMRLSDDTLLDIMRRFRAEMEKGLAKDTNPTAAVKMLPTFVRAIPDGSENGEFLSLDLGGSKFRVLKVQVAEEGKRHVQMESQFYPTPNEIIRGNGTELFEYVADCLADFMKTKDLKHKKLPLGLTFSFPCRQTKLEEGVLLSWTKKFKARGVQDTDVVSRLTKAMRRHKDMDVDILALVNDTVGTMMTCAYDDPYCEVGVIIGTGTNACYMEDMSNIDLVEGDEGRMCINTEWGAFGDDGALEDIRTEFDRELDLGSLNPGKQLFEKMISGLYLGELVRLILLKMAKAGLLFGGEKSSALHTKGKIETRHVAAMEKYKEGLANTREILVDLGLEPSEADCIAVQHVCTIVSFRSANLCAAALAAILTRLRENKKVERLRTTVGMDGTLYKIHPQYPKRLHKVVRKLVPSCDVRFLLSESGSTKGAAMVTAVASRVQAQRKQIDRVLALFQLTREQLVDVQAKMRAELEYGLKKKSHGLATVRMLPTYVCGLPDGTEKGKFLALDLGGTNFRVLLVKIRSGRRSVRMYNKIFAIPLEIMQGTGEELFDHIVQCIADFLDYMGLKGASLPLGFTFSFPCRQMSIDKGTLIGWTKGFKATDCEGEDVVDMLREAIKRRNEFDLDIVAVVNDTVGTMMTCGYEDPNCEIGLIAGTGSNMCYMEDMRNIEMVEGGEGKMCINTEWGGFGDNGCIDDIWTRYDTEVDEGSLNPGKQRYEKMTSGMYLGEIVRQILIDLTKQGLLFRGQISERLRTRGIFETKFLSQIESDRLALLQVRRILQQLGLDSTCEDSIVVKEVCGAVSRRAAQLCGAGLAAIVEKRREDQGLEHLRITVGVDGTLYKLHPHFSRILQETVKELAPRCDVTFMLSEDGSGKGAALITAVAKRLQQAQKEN

[18] = biological target: T4, Hexokinase-1 (Homo sapiens, UniProt P19367); test: SAR analysis of small molecule inhibitors of hexokinase domain containing I (HKDC1) in the hexokinase 1 selectivity assay. [Related pubchem assays (depositor defined):AID493160, AID493190]; assay type: functional
T4 sequence (P19367 whole entry): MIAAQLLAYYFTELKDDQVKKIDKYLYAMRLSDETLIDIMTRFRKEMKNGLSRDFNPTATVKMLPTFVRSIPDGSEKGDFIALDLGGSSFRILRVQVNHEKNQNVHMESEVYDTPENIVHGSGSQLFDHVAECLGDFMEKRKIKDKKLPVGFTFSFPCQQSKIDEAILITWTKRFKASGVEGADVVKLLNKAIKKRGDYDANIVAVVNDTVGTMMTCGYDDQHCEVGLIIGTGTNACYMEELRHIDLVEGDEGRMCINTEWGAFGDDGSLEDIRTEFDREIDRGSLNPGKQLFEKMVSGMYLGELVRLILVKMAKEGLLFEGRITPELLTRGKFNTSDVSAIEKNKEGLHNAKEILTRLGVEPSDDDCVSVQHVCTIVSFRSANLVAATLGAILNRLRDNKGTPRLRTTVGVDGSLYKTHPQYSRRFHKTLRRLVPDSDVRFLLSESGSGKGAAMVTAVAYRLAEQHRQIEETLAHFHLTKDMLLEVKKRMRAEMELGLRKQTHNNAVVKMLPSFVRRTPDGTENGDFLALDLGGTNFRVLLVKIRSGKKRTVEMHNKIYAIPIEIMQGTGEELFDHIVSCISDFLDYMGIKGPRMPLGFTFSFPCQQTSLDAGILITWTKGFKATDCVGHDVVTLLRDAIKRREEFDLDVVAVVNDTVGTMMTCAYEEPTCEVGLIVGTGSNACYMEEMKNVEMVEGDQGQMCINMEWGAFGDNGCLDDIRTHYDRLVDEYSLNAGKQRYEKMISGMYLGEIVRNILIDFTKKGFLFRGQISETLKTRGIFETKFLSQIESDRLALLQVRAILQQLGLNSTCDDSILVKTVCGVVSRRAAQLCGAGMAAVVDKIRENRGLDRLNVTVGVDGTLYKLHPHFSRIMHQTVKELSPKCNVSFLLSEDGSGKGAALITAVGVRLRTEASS

[19] = biological target: Cytochrome P450 2C9 (Homo sapiens, UniProt P11712)
Chain of Cytochrome P450 2C9 (P11712 whole entry): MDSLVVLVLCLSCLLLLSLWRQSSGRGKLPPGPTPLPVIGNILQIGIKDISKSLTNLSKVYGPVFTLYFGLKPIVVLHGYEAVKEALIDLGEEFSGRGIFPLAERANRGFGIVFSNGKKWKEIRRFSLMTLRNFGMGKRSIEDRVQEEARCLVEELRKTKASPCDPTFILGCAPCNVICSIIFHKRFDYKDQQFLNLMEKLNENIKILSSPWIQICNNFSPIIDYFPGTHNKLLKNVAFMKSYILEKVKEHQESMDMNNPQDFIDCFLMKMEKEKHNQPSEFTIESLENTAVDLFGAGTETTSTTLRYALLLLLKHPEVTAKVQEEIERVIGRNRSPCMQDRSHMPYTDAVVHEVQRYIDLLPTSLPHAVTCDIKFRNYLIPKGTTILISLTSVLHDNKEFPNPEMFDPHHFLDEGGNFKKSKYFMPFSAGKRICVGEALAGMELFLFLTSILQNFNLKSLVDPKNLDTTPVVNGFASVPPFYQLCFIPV

Chain of Cytochrome P450 2D6 (P10635 whole entry, the tested form may be a part): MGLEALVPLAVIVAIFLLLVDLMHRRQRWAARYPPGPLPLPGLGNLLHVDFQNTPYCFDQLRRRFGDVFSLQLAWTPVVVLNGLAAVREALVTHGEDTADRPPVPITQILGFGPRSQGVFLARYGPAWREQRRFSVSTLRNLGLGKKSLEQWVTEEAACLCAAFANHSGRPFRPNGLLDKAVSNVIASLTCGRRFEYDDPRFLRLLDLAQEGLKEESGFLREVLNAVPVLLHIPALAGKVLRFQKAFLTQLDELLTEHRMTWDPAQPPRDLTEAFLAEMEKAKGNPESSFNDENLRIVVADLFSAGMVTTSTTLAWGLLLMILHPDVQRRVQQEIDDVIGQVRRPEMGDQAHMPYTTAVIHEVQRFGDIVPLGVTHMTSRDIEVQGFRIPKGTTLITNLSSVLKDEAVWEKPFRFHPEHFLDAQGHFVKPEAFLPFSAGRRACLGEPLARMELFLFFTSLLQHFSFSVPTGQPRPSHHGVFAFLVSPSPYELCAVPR
Chain of Tumor necrosis factor (P01375 whole entry, the tested form may be a part): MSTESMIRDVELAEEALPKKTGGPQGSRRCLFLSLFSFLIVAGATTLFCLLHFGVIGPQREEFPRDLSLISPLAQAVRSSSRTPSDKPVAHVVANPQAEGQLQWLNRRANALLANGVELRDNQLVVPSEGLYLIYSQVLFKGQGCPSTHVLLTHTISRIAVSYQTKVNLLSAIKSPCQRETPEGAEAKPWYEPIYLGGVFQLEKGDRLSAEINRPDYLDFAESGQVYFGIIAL
Chain of Nucleotide-binding oligomerization domain-containing protein 2 (Q9HC29 whole entry, the tested form may be a part): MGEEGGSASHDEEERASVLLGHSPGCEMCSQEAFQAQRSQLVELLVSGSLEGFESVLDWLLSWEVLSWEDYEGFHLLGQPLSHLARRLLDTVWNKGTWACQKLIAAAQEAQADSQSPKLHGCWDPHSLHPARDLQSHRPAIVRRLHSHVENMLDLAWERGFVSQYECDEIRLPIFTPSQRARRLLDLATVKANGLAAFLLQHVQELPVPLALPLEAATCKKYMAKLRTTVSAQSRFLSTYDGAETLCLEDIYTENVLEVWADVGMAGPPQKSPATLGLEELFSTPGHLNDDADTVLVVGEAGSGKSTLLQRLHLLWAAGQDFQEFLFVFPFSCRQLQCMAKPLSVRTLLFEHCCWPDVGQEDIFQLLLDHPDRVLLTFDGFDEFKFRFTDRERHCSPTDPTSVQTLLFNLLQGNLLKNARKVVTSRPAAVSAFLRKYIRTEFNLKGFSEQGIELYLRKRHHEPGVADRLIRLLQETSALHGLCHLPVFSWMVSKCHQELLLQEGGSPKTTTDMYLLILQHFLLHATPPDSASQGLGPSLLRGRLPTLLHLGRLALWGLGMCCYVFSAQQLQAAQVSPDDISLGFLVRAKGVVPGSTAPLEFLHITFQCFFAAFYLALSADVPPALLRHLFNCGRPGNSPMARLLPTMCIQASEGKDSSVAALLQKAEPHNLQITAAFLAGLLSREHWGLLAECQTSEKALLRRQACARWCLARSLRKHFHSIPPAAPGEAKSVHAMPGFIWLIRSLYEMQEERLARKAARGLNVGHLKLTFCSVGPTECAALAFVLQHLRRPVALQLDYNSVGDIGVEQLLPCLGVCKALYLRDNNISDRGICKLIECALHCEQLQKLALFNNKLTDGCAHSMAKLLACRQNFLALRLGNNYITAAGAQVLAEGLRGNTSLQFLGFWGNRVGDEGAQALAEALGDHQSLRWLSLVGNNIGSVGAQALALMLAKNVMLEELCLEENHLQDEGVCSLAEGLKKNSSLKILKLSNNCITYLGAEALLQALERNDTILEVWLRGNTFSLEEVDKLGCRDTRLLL
Chain of Cytochrome P450 2C19 (P33261 whole entry): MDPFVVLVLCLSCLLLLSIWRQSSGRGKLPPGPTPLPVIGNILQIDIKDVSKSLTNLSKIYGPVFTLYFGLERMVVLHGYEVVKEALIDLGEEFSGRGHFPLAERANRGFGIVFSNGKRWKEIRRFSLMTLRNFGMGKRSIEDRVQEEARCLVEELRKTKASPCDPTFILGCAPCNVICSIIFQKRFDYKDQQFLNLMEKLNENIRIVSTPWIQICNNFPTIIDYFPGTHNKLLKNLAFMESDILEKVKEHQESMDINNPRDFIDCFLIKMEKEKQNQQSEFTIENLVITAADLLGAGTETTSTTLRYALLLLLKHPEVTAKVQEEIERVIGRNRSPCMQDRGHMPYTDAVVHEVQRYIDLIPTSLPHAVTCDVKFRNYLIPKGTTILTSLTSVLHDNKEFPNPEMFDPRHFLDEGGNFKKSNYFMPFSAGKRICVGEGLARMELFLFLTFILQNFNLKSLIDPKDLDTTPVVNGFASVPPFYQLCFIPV
Chain of SUMO-activating enzyme (Q9UBE0 whole entry): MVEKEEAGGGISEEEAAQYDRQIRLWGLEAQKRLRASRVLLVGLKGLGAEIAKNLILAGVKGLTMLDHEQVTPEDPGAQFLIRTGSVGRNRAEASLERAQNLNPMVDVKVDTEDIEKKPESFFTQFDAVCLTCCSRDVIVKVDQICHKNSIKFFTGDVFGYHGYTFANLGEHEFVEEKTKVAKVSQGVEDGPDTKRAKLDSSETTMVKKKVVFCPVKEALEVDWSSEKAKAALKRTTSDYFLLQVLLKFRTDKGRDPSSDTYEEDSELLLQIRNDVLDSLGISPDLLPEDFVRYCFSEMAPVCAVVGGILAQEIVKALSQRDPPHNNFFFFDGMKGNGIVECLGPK
Chain of SUMO-activating enzyme (Q9UBT2 whole entry): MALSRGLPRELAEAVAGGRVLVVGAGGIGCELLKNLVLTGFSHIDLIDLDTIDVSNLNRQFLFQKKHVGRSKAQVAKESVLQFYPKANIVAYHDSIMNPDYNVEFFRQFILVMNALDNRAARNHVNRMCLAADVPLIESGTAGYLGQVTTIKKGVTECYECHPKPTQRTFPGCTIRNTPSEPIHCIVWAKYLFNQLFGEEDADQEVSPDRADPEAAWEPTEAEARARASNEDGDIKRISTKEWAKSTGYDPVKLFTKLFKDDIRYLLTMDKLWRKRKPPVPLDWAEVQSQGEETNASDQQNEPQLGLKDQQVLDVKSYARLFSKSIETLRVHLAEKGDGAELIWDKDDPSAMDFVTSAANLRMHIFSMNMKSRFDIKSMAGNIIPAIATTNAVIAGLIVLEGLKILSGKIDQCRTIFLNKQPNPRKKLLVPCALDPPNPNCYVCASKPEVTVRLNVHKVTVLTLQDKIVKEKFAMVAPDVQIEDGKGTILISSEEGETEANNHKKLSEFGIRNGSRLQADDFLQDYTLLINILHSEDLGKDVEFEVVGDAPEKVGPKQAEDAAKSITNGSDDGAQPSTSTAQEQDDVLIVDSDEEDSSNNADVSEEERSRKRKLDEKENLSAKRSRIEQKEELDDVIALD

IC50 [1]: 41.3 µM (active)
Compound: Cc1cc(OC(C(=O)O)c2ccccc2)c2c(C)c(Cc3ccccc3)c(=O)oc2c1 (stereo not drawn)

AC50 [2]: inconclusive
Compound: CC(C)[C@](N)(C(=O)O)c1ccccc1

Compound: O=C(c1ccc(S(=O)(=O)c2cccc(Cl)c2)c([N+](=O)[O-])c1)N1CCN(c2ccccn2)CC1
IC50 [3]: 1.4 µM (active)
IC50 [4]: 4.43 µM (active)
EC50 [5]: 12.3 µM (active)
IC50 [6]: 8.21 µM (active)
IC50 [7]: 1.72 µM (active)
IC50 [8]: 1.95 µM (active)
IC50 [9]: 10.4 µM (active)
EC50 [10]: 10.1 µM (active)
IC50 [11]: > 20 µM (inactive)

AC50 [12]: 20 µM (inconclusive)
AC50 [2]: inconclusive
Compound: O=C(CCN1C(=O)C2C3C=CC(C3)C2C1=O)Nc1ccc2ncccc2c1 (stereo not drawn)

AC50 [2]: inconclusive
Compound: CO/N=C(/C)CCC(=O)OC[C@@H]1O[C@H](C#Cc2ccccc2)C=C[C@@H]1Oc1ccc(C)cc1

Compound: Cc1cc(C(=O)NC2CCCc3c2cnn3-c2ccc(C)c(C)c2)n(C)n1 (stereo not drawn)
IC50 [3]: 0.0431 µM (active)
IC50 [4]: 0.0793 µM (active)
IC50 [13]: > 0.117 µM (active)
AC50 [14]: < 0.26 µM (active)
AC50 [15]: 0.24 µM (active)
AC50 [16]: < 0.26 µM (active)
IC50 [6]: > 20 µM (inactive)

IC50 [17]: > 80 µM (inactive)
IC50 [18]: > 80 µM (inactive)
Compound: O=c1c2ccccc2nc(/C=C/c2ccccc2)n1CCc1ccccc1

Compound: Cc1nn(-c2ccccc2)c2nc(C(Cl)(Cl)Cl)nc(O)c12
IC50 [6]: > 20 µM (inactive)
IC50 [7]: > 20 µM (inactive)
IC50 [8]: 17.9 µM (inactive)
IC50 [9]: > 20 µM (inactive)
EC50 [10]: 12.4 µM (active)
IC50 [11]: > 20 µM (inactive)

IC50 [13]: 13.8 µM (inactive)
Compound: NC(=O)c1ccsc1NC(=O)COC(=O)Cc1cccc2ccccc12

AC50 [2]: inconclusive
Compound: CO[C@H]1COC(=O)[C@@H](Cc2ccccc2)NC(=O)[C@@H](C)COC(=O)CCC[C@@H]1C

IC50 [17]: > 80 µM (inactive)
IC50 [18]: > 80 µM (inactive)
Compound: Cc1ccc(C)c(S(=O)(=O)Nc2cccc3ccccc23)c1

IC50 [17]: 15.6 µM (active)
IC50 [18]: > 80 µM (inactive)
Compound: O=S(=O)(Nc1ccc(O)c2ccccc12)c1ccc(Cl)cc1

IC50 [13]: 5.62 µM (active)
Compound: CCN(CC)S(=O)(=O)c1cccc(NC(=O)COC(=O)c2[nH]c(C)c(C(C)=O)c2C)c1

AC50 [19]: 5.01 µM (inconclusive)
AC50 [2]: inconclusive
Compound: C/C(=N/NC(=O)c1ccc(NC(=O)c2ccc(F)cc2)cc1)c1ccccc1
